{"source": "patent US7202196B2", "about": "“Selective herbicide comprising a tetrazolinone derivative” (Bayer Cropscience AG, priority 2001, dated 2007)", "assay_type_in_all_cases": "in vivo", "key": {"Echinochloa crus-galli [1]": {"tested_on": "Echinochloa crus-galli", "assay": "Example E: test in sown rice (Brazil), herbicidal effect", "details": "fentrazamide 250 EC 300 g a.i./ha; spray at BBCH 23 stage of the rice, 29 days after sowing; scored 2 weeks after application; outdoor test Brazil 1999", "excerpt": "(§1) To prepare a spray preparation, the active compound preparations are mixed with water. The concentration is adjusted so that the application rate corresponds to 200 l of water/ha.\n(§2) Rice seeds are sown in test plots (2 m×5 m) in rice paddies. 29 days after sowing (during the BBCH 23 development stage of the rice; begin of stocking), the spray preparation is applied to the test areas (using a hand-operated sprayer). A few days after the treatment, the soil is flooded to a water depth of 5 cm; the standing water levels are kept constant.\n(§3) 2 weeks after the active compound application, the degree of damage to the rice plants and the herbicidal effect on the emerged weeds Echinochloa crus-galli and Brachiaria plantaginea is scored visually in percent in comparison to an untreated control.\n(§4) The figures denote: • 0%=no action/damage (like untreated control) • 100%=total destruction"}, "Brachiaria plantaginea": {"tested_on": "Brachiaria plantaginea", "assay": "Example C: test in sown rice (Brazil), herbicidal effect", "details": "fentrazamide 250 EC 300 g a.i./ha; spray at BBCH 23 stage of the rice, 29 days after sowing; scored 2 weeks after application; outdoor test Brazil 1999", "excerpt": "as §1, §2, §3, §4"}, "Echinochloa crus-galli [2]": {"tested_on": "Echinochloa crus-galli", "assay": "Example C: test in sown rice (Brazil), herbicidal effect", "details": "fentrazamide 250 EC 300 g a.i./ha; spray at BBCH 23 stage of the rice, 29 days after sowing; scored 2 weeks after application; outdoor test Brazil 1999", "excerpt": "as §1, §2, §3, §4"}, "Echinochloa crus-galli [3]": {"tested_on": "Echinochloa crus-galli", "assay": "Example I: test in sown rice (Thailand), herbicidal effect", "details": "fentrazamide 50 WP 135 g a.i./ha; spray 7 days after sowing (2-leaf-stage); scored 3 weeks after application; outdoor test Thailand 1999", "excerpt": "as §1\nas §2, with “(2.5 m×2.5” for “(2 m×5”, “7” for “29”, “(2-leaf-stage” for “(during the BBCH 23 development stage”, “rice),” for “rice; begin of stocking),”, “2” for “A few”\n(§5) 3 weeks after the active compound application, the degree of damage to the rice plants and the herbicidal effect on the emerged weeds Echinochloa crus-galli is scored visually in percent in comparison to an untreated control.\nas §4"}, "Paddy rice (Oryza sp.) [4]": {"tested_on": "Paddy rice (Oryza sp.)", "assay": "Example C: test in sown rice (Brazil), damage to rice", "details": "fentrazamide 250 EC 300 g a.i./ha; spray at BBCH 23 stage of the rice, 29 days after sowing; scored 2 weeks after application; outdoor test Brazil 1999", "excerpt": "as §1, §2, §3, §4"}, "Paddy rice (Oryza sp.) [5]": {"tested_on": "Paddy rice (Oryza sp.)", "assay": "Example H: test in sown rice (Thailand), damage to rice", "details": "fentrazamide 50 WP 135 g a.i./ha; spray 7 days after sowing (2-leaf-stage); scored 8 weeks after application; outdoor test Thailand 1999", "excerpt": "as §1\nas §2, with “(2.5 m×2.5” for “(2 m×5”, “7” for “29”, “(2-leaf-stage” for “(during the BBCH 23 development stage”, “rice),” for “rice; begin of stocking),”, “2” for “A few”\n(§6) 8 weeks after the active compound application, the degree of damage to the rice plants and the herbicidal effect on the emerged weeds Echinochloa crus-galli and Leptochloa chinensis is scored visually in percent in comparison to an untreated control.\nas §4"}, "Paddy rice (Oryza sp.) [6]": {"tested_on": "Paddy rice (Oryza sp.)", "assay": "Example I: test in sown rice (Thailand), damage to rice", "details": "fentrazamide 50 WP 135 g a.i./ha; spray 7 days after sowing (2-leaf-stage); scored 3 weeks after application; outdoor test Thailand 1999", "excerpt": "as §1\nas §2, with “(2.5 m×2.5” for “(2 m×5”, “7” for “29”, “(2-leaf-stage” for “(during the BBCH 23 development stage”, “rice),” for “rice; begin of stocking),”, “2” for “A few”\nas §5, §4"}, "Leptochloa chinensis": {"tested_on": "Leptochloa chinensis", "assay": "Example H: test in sown rice (Thailand), herbicidal effect", "details": "fentrazamide 50 WP 135 g a.i./ha; spray 7 days after sowing (2-leaf-stage); scored 8 weeks after application; outdoor test Thailand 1999", "excerpt": "as §1\nas §2, with “(2.5 m×2.5” for “(2 m×5”, “7” for “29”, “(2-leaf-stage” for “(during the BBCH 23 development stage”, “rice),” for “rice; begin of stocking),”, “2” for “A few”\nas §6, §4"}, "Echinochloa crus-galli [7]": {"tested_on": "Echinochloa crus-galli", "assay": "Example H: test in sown rice (Thailand), herbicidal effect", "details": "fentrazamide 50 WP 135 g a.i./ha; spray 7 days after sowing (2-leaf-stage); scored 8 weeks after application; outdoor test Thailand 1999", "excerpt": "as §1\nas §2, with “(2.5 m×2.5” for “(2 m×5”, “7” for “29”, “(2-leaf-stage” for “(during the BBCH 23 development stage”, “rice),” for “rice; begin of stocking),”, “2” for “A few”\nas §6, §4"}, "Acanthospermum hispidum": {"tested_on": "Acanthospermum hispidum", "assay": "Example F: test in sown rice (Brazil), herbicidal effect", "details": "fentrazamide 250 EC 300 g a.i./ha; spray at BBCH 12 stage of the rice (2-leaf-stage), 18 days after sowing; scored 3 weeks after application; outdoor test Brazil 1999", "excerpt": "as §1\n(§7) Rice seeds are sown in test plots (2 m×5 m) in rice paddies. 18 days after sowing (during the BBCH 12 development stage of the rice; corresponds to the 2-leaf-stage), the spray preparation is applied to the test areas (using a hand-operated sprayer).\n(§8) 3 weeks after the active compound application, the degree of damage to the rice plants and the herbicidal effect on the emerged weeds Acanthospermum hispidum, Commelina benghalensis, Digitaria sanguinalis and Eleusine indica is scored visually in percent in comparison to an untreated control.\nas §4"}, "Eleusine indica": {"tested_on": "Eleusine indica", "assay": "Example F: test in sown rice (Brazil), herbicidal effect", "details": "fentrazamide 250 EC 300 g a.i./ha; spray at BBCH 12 stage of the rice (2-leaf-stage), 18 days after sowing; scored 3 weeks after application; outdoor test Brazil 1999", "excerpt": "as §1, §7, §8, §4"}, "Commelina benghalensis": {"tested_on": "Commelina benghalensis", "assay": "Example F: test in sown rice (Brazil), herbicidal effect", "details": "fentrazamide 250 EC 300 g a.i./ha; spray at BBCH 12 stage of the rice (2-leaf-stage), 18 days after sowing; scored 3 weeks after application; outdoor test Brazil 1999", "excerpt": "as §1, §7, §8, §4"}, "Digitaria sanguinalis": {"tested_on": "Digitaria sanguinalis", "assay": "Example F: test in sown rice (Brazil), herbicidal effect", "details": "fentrazamide 250 EC 300 g a.i./ha; spray at BBCH 12 stage of the rice (2-leaf-stage), 18 days after sowing; scored 3 weeks after application; outdoor test Brazil 1999", "excerpt": "as §1, §7, §8, §4"}}}
{"smiles": "CCN(C(=O)n1nnn(-c2ccccc2Cl)c1=O)C1CCCCC1", "note": "[(A), 4-(2-chlorophenyl)-N-cyclohexyl-N-ethyl-4,5-dihydro-5-oxo-1H-tetrazole-1-carboxamide]", "values": [{"measurement": "Damage or action in % Echinochloa crus-galli found", "setting": "Echinochloa crus-galli [1]", "result": 35, "unit": "%"}, {"measurement": "Damage or action in % Brachiaria plantaginea found", "setting": "Brachiaria plantaginea", "result": 10, "unit": "%"}, {"measurement": "Damage or action in % Echinochloa crus-galli found", "setting": "Echinochloa crus-galli [2]", "result": 35, "unit": "%"}, {"measurement": "Damage or action in % Echinochloa crus-galli found", "setting": "Echinochloa crus-galli [3]", "result": 58, "unit": "%"}, {"measurement": "Damage or action in % Paddy rice (Oryza sp.) found", "setting": "Paddy rice (Oryza sp.) [4]", "result": 0, "unit": "%"}, {"measurement": "Damage or action in % Paddy rice (Oryza sp.) found", "setting": "Paddy rice (Oryza sp.) [5]", "result": 3, "unit": "%"}, {"measurement": "Damage or action in % Paddy rice (Oryza sp.) found", "setting": "Paddy rice (Oryza sp.) [6]", "result": 2, "unit": "%"}, {"measurement": "Damage or action in % Leptochloa chinensis found", "setting": "Leptochloa chinensis", "result": 38, "unit": "%"}, {"measurement": "Damage or action in % Echinochloa crus-galli found", "setting": "Echinochloa crus-galli [7]", "result": 47, "unit": "%"}, {"measurement": "Damage or action in % Acantho-spermum hispidum found", "setting": "Acanthospermum hispidum", "result": 50, "unit": "%"}, {"measurement": "Damage or action in % Eleusine indica found", "setting": "Eleusine indica", "result": 50, "unit": "%"}, {"measurement": "Damage or action in % Commelina Bengha-lensis found", "setting": "Commelina benghalensis", "result": 50, "unit": "%"}, {"measurement": "Damage or action in % Digitaria Sanguina-lis found", "setting": "Digitaria sanguinalis", "result": 50, "unit": "%"}]}
